# In US8193213B2, “Spermicidal and/or antifungal composition and methods of using the same” (priority 2003, dated 2012):
# Marks after values point to notes of the source that are not given here.
# What was measured:
# [1] = system: adult male Swiss mice; test: Antispermatogenic screen: single gavage dose to male mice, testes weight and Spermatogenic Index at 72 h; format: in vivo; settings: 30 mg/kg single gavage dose, day 3 (72 h)
# Protocol: The compounds of the invention were tested in mice for their effects on spermatogenesis three days after a single oral dose by the procedure described in Cook et al (1995) below. Compounds active in this test have been shown also to be anti-fertility compounds.
# Compounds were screened for antispermatogenic activity by dosing male mice on day 1 with a gavage dose of control vehicle, positive control (compound 1) or compound of the invention. At 72 h after dosing, animals were killed and the testes were excised, trimmed of fat, and weighed. One testis was examined histologically and rated for spermatogenic potential using the Spermatogenic Index (J. M. Whitsett, P. F. Noden, J. Cherry and A. D. Lawton, J. Reprod. Fertil., 72, 277 (1984), which is a semiquantitative estimate of the sperm producing ability of the testes The index is based on histological appearance of the spermatogenic cells in the seminiferous tubules. A scale of 1 to 6 is used with 5 to 6 being the normal status. A second assessment was based on the weight of the testes.
# Tables 1 and 2 show pertinent biological results in terms of the change in testes weight (TW) and spermatogenic index (SI) relative to a control containing only the administration vehicle, but no indenopyridine. In Tables 1 and 2, R^3 and R^4 refer to structures Ib, where R^3 is in the para position; R^1 is ethyl; R^2 is methyl; and R^5 is hydrogen.
# [2] = system: mice; test: Lethargy and sedation in mice; format: in vivo
# Description: Lethargy and sedation are obviously undesirable side effects in contraceptive agents. In contrast to the lethargy and sedation observed with compound 1, the compounds of the present invention produce minimal lethargy.
# [3] = system: spermatogenesis; settings: oral administration to animals; cited from earlier work
# [4] = system: testes; test: Antispermatogenic activity after a single oral dose to rats; format: in vivo; settings: single oral dose of 30 mg/kg
# Description: Spermatids became pycnotic, occasionally forming multinucleated associations. Sertoli cells appear to be cytologically normal. It appears that compound 1 targets spermatids or the Sertoli cell associated with these spermatids because histologic changes are observed in these spermatids first.
# [5] = Table 2, vehicle 1% Tween20 in water
# [6] = racemic compounds, vehicle 90% water, 7% Tween20, 3% ethanol
smiles,measurement,setting,value
"CCN1CC[C@@H]2[C@@H](c3ccc(C)cc3)c3cc(C)ccc3[C@@H]2C1 (racemic) [Compound 1, (4aRS,5SR,9bRS)-2-ethyl-2,3,4,4a,5,9b-hexahydro-7-methyl-5-(4-methylphenyl)-1H-indeno[1,2-c]pyridine]","SI change (%) (Spermatogenic Index, % change from vehicle control)",[1]; [5],−61%*
same,"TW change (%) (testes weight, % change from vehicle control)",[1]; [5],−24%*
same,"SI change (%) (Spermatogenic Index, % change from vehicle control)",[1]; [6],−55%*
same,"TW change (%) (testes weight, % change from vehicle control)",[1]; [6],19%*
same,Lethargy,[2]; 30 mg/kg given subcutaneously,extreme lethargy
same,Lethargy and sedation,[2]; oral dose of 30 mg/kg,some lethargy and sedation
same,Inhibition of spermatogenesis,[3],reversible inhibition of spermatogenesis
same,Testis histology,[4],Degenerative changes in the seminiferous tubules
same,Effect on weights of the testes,[4]; within 24 h,drastically reducing the weights of the testes
